Measured values from PubChem BioAssay (NCI).
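A five-concentration, 48-hour dose response in 96-well plates underlies each endpoint, interpolated linearly between surrounding concentrations. GI50 = concentration required for 50% inhibition of growth. At the TGI there is no net growth.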

Legend:
Assay in all cases: NCI anticancer screen, dose series, 48 h
U251 CNS = test system: U251 CNS
SNB-75 CNS = test system: SNB-75 CNS
SF-268 CNS = test system: SF-268 CNS
SN12C renal = test system: SN12C renal
K-562 leukemia = test system: K-562 leukemia
NCI-H522 lung = test system: NCI-H522 lung
NCI-H226 lung = test system: NCI-H226 lung
SK-MEL-2 melanoma = test system: SK-MEL-2 melanoma
SNB-19 CNS = test system: SNB-19 CNS
UO-31 renal = test system: UO-31 renal

SMILES | TGI (U251 CNS) | TGI (SNB-75 CNS) | TGI (SF-268 CNS) | TGI (SN12C renal) | TGI (K-562 leukemia) | TGI (NCI-H522 lung) | TGI (NCI-H226 lung) | TGI (SK-MEL-2 melanoma) | TGI (SNB-19 CNS) | TGI (UO-31 renal) | GI50 (U251 CNS) | GI50 (SNB-75 CNS) | GI50 (SF-268 CNS) | GI50 (SN12C renal) | GI50 (K-562 leukemia) | GI50 (NCI-H522 lung) | GI50 (NCI-H226 lung) | GI50 (SK-MEL-2 melanoma) | GI50 (SNB-19 CNS) | GI50 (UO-31 renal)
O=C1c2cc([N+](=O)[O-])ccc2-c2cccc(F)c21 | > 100 µM | > 100 µM | > 100 µM | > 100 µM | > 100 µM | > 100 µM | > 100 µM | 55.7 µM | > 100 µM | > 100 µM |  |  |  |  |  |  |  |  |  | 
COc1cc2c(Oc3ccc4[nH]c(C)cc4c3F)ccnc2cc1OCC1(N)CC1 | 7.15 µM | 2.46 µM | 12.9 µM | 7.56 µM | 12.3 µM | 3.46 µM | 14.9 µM | 3.79 µM | 28.1 µM | 3.69 µM | 0.674 µM | 0.651 µM | 1.39 µM | 1.78 µM | 0.416 µM | 1.27 µM | 0.894 µM | 1.68 µM | 1.64 µM | 0.864 µM
O=C(Nc1ccc(F)cc1F)c1cc(Br)ccc1O | > 100 µM | 3.73 µM | 38.7 µM | 9.26 µM | > 100 µM | 39.9 µM | 23.8 µM | 6.74 µM | > 100 µM | 6.01 µM | 2.78 µM | 0.558 µM | 2.78 µM | 2.26 µM | 2.42 µM | 2.83 µM | 2.62 µM | 2.3 µM | 2.75 µM | 1.43 µM
C[C@]12CC[C@H](OCCC#N)CC1=CC[C@@H]1C2CC[C@]2(C)/C(=N/OCCC#N)CCC12 (stereo partly specified) | > 100 µM | > 78.9 µM | > 100 µM | > 100 µM | > 100 µM | > 100 µM | > 100 µM | > 100 µM | 97.9 µM | > 100 µM |  |  |  |  |  |  |  |  |  | 
CCCCCCCCCCC(O)C1CCC(C(O)CCC(O)C2CCC(CCCCCCC[C@H](O)CC3=C[C@@H](C)OC3=O)O2)O1 (stereo partly specified) | > 100 µM | 25.4 µM | > 100 µM | > 100 µM | > 100 µM | > 100 µM | 40.4 µM | > 100 µM | > 88.3 µM | > 86.1 µM |  | 2.92 µM |  |  | 2.18 µM |  |  |  |  | 
O=C(N/N=C/c1ccccc1Cl)c1ccccc1Nc1ccnc(C(F)(F)F)c1 | 6.18 µM | 26.7 µM | 10.5 µM | 12.7 µM |  | 6.74 µM | 3.52 µM | 5.02 µM | > 61.2 µM | 6.49 µM | 1.15 µM | 2.41 µM | 1.8 µM | 1.27 µM | 2.16 µM | 1.98 µM | 0.811 µM | 1.79 µM | 2.4 µM | 1.92 µM
COc1ccc2c(c1)OC1=C(C(=O)OC1)C2c1cc(OC)c(OC)c(OC)c1 (stereo unspecified) | > 100 µM | > 100 µM | > 100 µM | > 100 µM | > 100 µM | 2.02 µM | 5.99 µM | > 100 µM | > 100 µM | > 100 µM | 0.456 µM | 0.295 µM | 1.91 µM | 0.806 µM | 0.199 µM | 0.273 µM | 0.441 µM | 0.518 µM | 0.58 µM | 0.961 µM
